According to the supplement of paper PMC6045584:

Experiments:
Test in all cases: area under dose-response curve of surviving fraction (unscaled, Aref=0) (surviving fraction x log10(nM)); higher = more resistant
Settings in all cases: exposure time: 5 days; dose range 0.5-1000 nM
[1] = compound: C#Cc1cccc(Nc2ncnc3cc(OCCOC)c(OCCOC)cc23)c1 [ERLOTINIB]
How it was run: (§1)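 Three screens per tumour cell line were run in 384-well plates at eight inhibitor concentrations from 0.5 to 1000 nM over five days. Surviving fractions, from CellTiter-Glo luminescence normalised to DMSO-only wells, were fitted with 3-parameter logistic curves in the drc R package. The reported area under the curve is the unscaled activity area. It spans log10 dose, and Aref is 0.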

[2] = compound: CCCS(=O)(=O)Nc1ccc(F)c(C(=O)c2c[nH]c3ncc(Cl)cc23)c1F [PLX-4720]
How it was run: as §1

[3] = compound: CCN(CC)CCNC(=O)c1c(C)[nH]c(/C=C2\C(=O)Nc3ccc(F)cc32)c1C [SUNITINIB]
How it was run: as §1

[4] = compound: CN(Cc1cnc2nc(N)nc(N)c2n1)c1ccc(C(=O)N[C@@H](CCC(=O)O)C(=O)O)cc1 [METHOTREXATE]
How it was run: as §1

[5] = compound: CO[C@H]1C[C@@H]2CC[C@@H](C)[C@@](O)(O2)C(=O)C(=O)N2CCCC[C@H]2C(=O)O[C@H]([C@H](C)C[C@@H]2CC[C@@H](OCCO)[C@H](OC)C2)CC(=O)[C@H](C)/C=C(\C)[C@@H](O)[C@@H](OC)C(=O)[C@H](C)C[C@H](C)/C=C/C=C/C=C/1C [EVEROLIMUS]
How it was run: as §1

[6] = compound: COc1cc(CCc2cc(NC(=O)c3ccc(N4CC(C)NC(C)C4)cc3)n[nH]2)cc(OC)c1 [AZD4547]
How it was run: as §1

[7] = compound: NC1(c2ccc(-c3nc4ccn5c(=O)[nH]nc5c4cc3-c3ccccc3)cc2)CCC1 [MK2206]
How it was run: as §1

[8] = compound: O=C(NOCC1CC1)c1ccc(F)c(F)c1Nc1ccc(I)cc1Cl
How it was run: as §1

[9] = compound: O=C(O)CC[C@H]1CC[C@@](c2cc(F)ccc2F)(S(=O)(=O)c2ccc(Cl)cc2)CC1 [MK0752]
How it was run: as §1

Test System	area under dose-response curve [1]	area under dose-response curve [2]	area under dose-response curve [3]	area under dose-response curve [4]	area under dose-response curve [5]	area under dose-response curve [6]	area under dose-response curve [7]	area under dose-response curve [8]	area under dose-response curve [9]
22RV1 PROSTATE	3.31	3.09	3.06	2.21	1.48	3.43	2.65	2.6	3.57
93VU HEADNECK	2.99	3.02	2.8	–	2.71	3.56	–	2.54	3.92
143B BONE	–	–	3.19	–	–	2.83	–	3.23	3.49
A549 LUNG	3.49	3.13	3.13	2.14	2.81	3.33	3.54	3.13	3.48
ASKA SYNOVIAL	3.77	3.2	2.07	3.77	2.28	–	2.71	3.28	–
BT20 BREAST	3.67	3	2.95	3.51	1.35	3.58	3.76	3.11	–
BT549 BREAST	3.57	3.1	3.02	1.9	–	3.46	2.87	–	–
CADOES1 SOFT TISSUE	2.74	3.09	3.22	1.82	1.49	3.23	2.82	2.87	3.14
CAL51 BREAST	3.36	3.19	2.99	1.91	1.23	2.67	3.16	3.12	3.32
CAL120 BREAST	3.02	2.96	2.74	1.67	1.62	2.59	3.14	2.97	3.37
CASKI CERVIX	2.27	3	2.3	2.23	–	3.17	2.5	2.58	3.28
CHLA90 AUTONOMIC GANGLIA	3.07	2.66	2.21	3.53	1.36	2.77	3.16	2.38	3.36
CME SYNOVIAL	–	3.17	2.09	2.37	–	–	4.03	3.27	4.45
COLO320DM LARGE INTESTINE	3.34	3.03	2.59	1.92	2.62	3.59	3.11	3.26	3.87
DU4475 BREAST	3.44	1.92	2.1	3.28	0.518	3.5	2.76	1.65	3.26
H23 LUNG	2.52	3.19	2.86	1.75	1.76	3.37	3.04	2.08	3.65
HCC38 BREAST	4.24	3.09	–	–	2.92	2.93	4.11	3.59	4.01
HCC70 BREAST	3.46	3.36	3.4	3	1.89	3.63	2.8	2.8	3.56
HCC78 LUNG	2.89	3.25	2.96	2.26	1.75	3.56	2.5	2.58	3.32
HCC202 BREAST	–	3.8	3.12	–	–	3.81	–	4.68	–
HCC1806 BREAST	–	2.86	2.29	1.55	2.74	3.6	–	–	3.93
HCC1954 BREAST	2.94	1.55	1.44	3.57	1.2	3.05	3.11	3.07	3.08
HCT15 LARGE INTESTINE	3.48	2.63	2.37	1.59	1.86	3.52	3.46	2.63	3.61

Test System	area under dose-response curve [1]	area under dose-response curve [2]	area under dose-response curve [3]	area under dose-response curve [4]	area under dose-response curve [5]	area under dose-response curve [6]	area under dose-response curve [7]	area under dose-response curve [8]	area under dose-response curve [9]
HELA CERVIX	3.61	3.26	3.08	2.22	3.58	3.71	3.72	–	3.42
HMLE3 BREAST	–	2.8	2.08	2.58	2.01	2.25	2.97	2.57	–
HMT3552 BREAST	3.18	–	–	2.25	1.98	–	3.05	–	–
HOS BONE	3.4	3.19	3.1	1.32	2.56	3.24	3.15	3.27	3.51
HOSMNG BONE	3.19	–	3.15	1.71	3.27	3.3	2.72	3.32	3.3
HS578T BREAST	–	2.96	–	2.46	1.77	3.18	2.94	3.18	3.05
HSSYII SYNOVIAL	3.37	2.43	1.93	2.96	1.79	1.51	3.02	2.61	3.29
HT1080 SOFT TISSUE	3.44	3.25	3.16	1.8	2.11	–	3.42	3.16	3.29
HU09 BONE	–	3.1	1.9	2.42	–	2.88	2.59	–	3.54
JIMT1 BREAST	3.16	3.05	2.96	1.69	1.88	3.41	3.01	3.11	3.29
JURKAT HAEMATOPOIETIC AND LYMPHOID TISSUE	–	3.23	3.06	1.35	1.76	–	2.74	–	3.4
KPD BONE	3.57	3.19	3.08	3.55	1.44	3.14	2.3	3.25	3.43
LM7 BONE	3.61	2.76	2.46	3	2.56	3.11	2.88	–	3.27
MCF7 BREAST	3.32	2.81	2.56	2.23	1.74	3.09	2.79	2.83	3.07
MDAMB134 BREAST	3.65	2.51	2.75	3.13	2.21	3.23	2.78	2.87	3.51
MDAMB157 BREAST	3.29	3.07	2.52	3.15	2.25	2.38	–	2.81	–
MDAMB231 BREAST	3.4	3.25	3.4	3.12	2.01	3.37	3.09	3.01	3.28
MDAMB361 BREAST	2.9	2.92	2.37	2.76	2.12	3.18	2.39	3.27	2.88
MDAMB436 BREAST	3.36	2.86	2.56	2.65	2	3.36	3.01	2.96	3.02
MDAMB453 BREAST	–	3.35	3.27	2.93	1.43	2.88	2.65	3.37	3.54
MG63 BONE	–	3.07	2.72	2.15	2.17	2.57	3.13	3.12	–
NCIH441 LUNG	–	3.08	3.25	–	–	–	3.53	2.98	3.43
NOS1 BONE	–	3.29	1.78	3.88	1.75	2.71	2.74	–	–

Test System	area under dose-response curve [1]	area under dose-response curve [2]	area under dose-response curve [3]	area under dose-response curve [4]	area under dose-response curve [5]	area under dose-response curve [6]	area under dose-response curve [7]	area under dose-response curve [8]	area under dose-response curve [9]
OSHN BONE	3.68	3.06	3.18	1.28	3.41	3.57	3.58	3.24	–
PCI30 HEADNECK	2.96	3.34	3.77	–	1.71	3.56	2.94	2.75	3.5
RDES SOFT TISSUE	4.03	2.9	2.98	1.28	3.46	–	–	4.3	3.76
S68 BREAST	–	2.92	2.58	3.64	1.39	3.45	2.5	2.84	3.26
SAOS2 BONE	–	3.06	2.75	–	3.1	–	3.03	3.22	3.89
SCC36 HEADNECK	2.92	2.88	2.53	2.83	3.13	–	2.91	–	–
SCC47 HEADNECK	–	3.12	3.14	2.96	3.2	3.44	3.26	2.91	–
SCC90 HEADNECK	2.89	3.12	3.19	2.81	2.09	3.57	3.03	2.18	–
SG27 HEADNECK	3.58	2.98	3.67	–	3.13	2.8	–	–	–
SG28 HEADNECK	–	2.51	2.12	–	–	–	–	2.72	3.56
SG31 HEADNECK	–	2.73	2.47	3.94	2.18	3.1	–	2.78	3.35
SG32 HEADNECK	3.57	2	1.96	3.65	–	3.26	3.68	2.65	3.82
SIHA CERVIX	–	3.18	3.13	2.99	2.23	3.02	3.01	2.76	3.79
SJSA1 BONE	–	3.17	3.16	5.58	5.2	3.5	3.03	3.08	3.53
SKBR3 BREAST	3.55	3.02	2.46	2.7	1.31	3.75	2.48	–	3.29
SUM44 BREAST	4.26	3.17	–	3.95	2.5	3.48	–	3.4	3.38
SUM149 BREAST	2.76	–	2.12	2.98	1.67	–	3.19	2.25	–
SUM149.B1*.S BREAST	3.76	–	2.35	–	3.22	3.88	3.63	2.74	3.78
SUM159 BREAST	3.56	–	3.06	3.2	2.88	3.84	3.58	2.75	–
VCAP PROSTATE	3.63	3.22	3.14	3.36	3.02	–	2.65	3.17	3.78
VP229 BREAST	2.92	3.1	2.41	3.77	1.96	–	–	–	–
YAMATO SYNOVIAL	4.34	2.65	1.58	2.44	2.2	–	2.75	3.26	4.77
ZR751 BREAST	–	2.73	3.62	2.86	1.57	3.05	1.96	2.56	3.79
